From the supplement of paper PMC10307832

Legend:
Test in all cases: relative viability (nuclei count vs DMSO), 5 days (fraction); higher = more cells survive
[1] = compound: C[C@@]1(C(=O)Nc2ccc(F)nc2)CCCN1c1nc(Nc2cc(C3CC3)n[nH]2)c2cccn2n1 + CC(=O)c1c(C)c2cnc(Nc3ccc(N4CCNCC4)cn3)nc2n(C2CCCC2)c1=O [Palbociclib] (partner 0.5 µM)
Outline: (§1)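 Cells from lung cancer lines were seeded into 1536-well plates and, one day later, dosed by pin tool. Treatments were either a single drug or a fixed dose of an anchor drug with five library-drug doses (not always all listed) in √10 steps. After 5 days, nuclei were stained in a one-step fixation (final 0.05% Triton X-100, 1% formaldehyde, 1 ug/ml Hoechst) and counted on 4× images, and relative viability is the treated-to-vehicle nuclei ratio, as the median of duplicate plates.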

[2] = compound: C[C@@]1(C(=O)Nc2ccc(F)nc2)CCCN1c1nc(Nc2cc(C3CC3)n[nH]2)c2cccn2n1 + Cc1cc(Nc2cc(N3CCN(C)CC3)nc(Sc3ccc(NC(=O)C4CC4)cc3)n2)n[nH]1 [Tozasertib] (partner 0.1 µM)
Outline: as §1

[3] = compound: C[C@@]1(C(=O)Nc2ccc(F)nc2)CCCN1c1nc(Nc2cc(C3CC3)n[nH]2)c2cccn2n1 + Cc1nc(NC(=O)N2CCC[C@H]2C(N)=O)sc1-c1ccnc(C(C)(C)C(F)(F)F)c1 [Alpelisib] (partner 2 µM)
Outline: as §1

[4] = compound: C[C@@]1(C(=O)Nc2ccc(F)nc2)CCCN1c1nc(Nc2cc(C3CC3)n[nH]2)c2cccn2n1 + N=C(N)NC(=N)NCCc1ccccc1 [Phenformin] (partner 250 µM)
Outline: as §1

| Cell Line | relative viability ([1]; first compound 0.04 µM) | relative viability ([1]; first compound 0.1265 µM) | relative viability ([1]; first compound 0.4 µM) | relative viability ([1]; first compound 1.265 µM) | relative viability ([2]; first compound 0.04 µM) | relative viability ([2]; first compound 0.1265 µM) | relative viability ([2]; first compound 0.4 µM) | relative viability ([2]; first compound 1.265 µM) | relative viability ([3]; first compound 0.04 µM) | relative viability ([3]; first compound 0.1265 µM) | relative viability ([3]; first compound 0.4 µM) | relative viability ([3]; first compound 1.265 µM) | relative viability ([4]; first compound 0.04 µM) | relative viability ([4]; first compound 0.1265 µM) | relative viability ([4]; first compound 0.4 µM) | relative viability ([4]; first compound 1.265 µM) |
| --- | --- | --- | --- | --- | --- | --- | --- | --- | --- | --- | --- | --- | --- | --- | --- | --- |
| NCI-H2023 | 0.255 | 0.22 | 0.174 | 0.209 | 0.337 | 0.31 | 0.174 | 0.118 | 0.407 | 0.374 | 0.376 | 0.407 | 0.354 | 0.271 | 0.294 | 0.189 |
| NCI-H2085 | 0.485 | 0.455 | 0.439 | 0.443 | 0.892 | 0.795 | 0.664 | 0.92 | 0.936 | 0.927 | 0.883 | 0.851 | 0.815 | 0.631 | 0.607 | 0.416 |
| NCI-H2087 | 0.218 | 0.188 | 0.177 | 0.181 | 0.231 | 0.28 | 0.159 | 0.209 | 1.09 | 1.07 | 0.928 | 0.851 | 0.437 | 0.342 | 0.313 | 0.237 |
| NCI-H2126 | 0.353 | 0.309 | 0.342 | 0.359 | 0.677 | 0.366 | 0.441 | 0.337 | 0.637 | 0.561 | 0.531 | 0.657 | 0.459 | 0.293 | 0.314 | 0.293 |
| NCI-H2170 | 0.362 | 0.396 | 0.369 | 0.371 | 0.671 | 0.791 | 0.636 | 0.559 | 0.728 | 0.658 | 0.606 | 0.728 | 0.432 | 0.396 | 0.419 | 0.357 |
| NCI-H2228 | 0.694 | 0.425 | 0.463 | 0.498 | 0.258 | 0.248 | 0.235 | 0.178 | 0.709 | 0.518 | 0.533 | 0.529 | 0.223 | 0.196 | 0.171 | 0.232 |
| NCI-H2347 | 0.405 | 0.415 | 0.386 | 0.436 | 0.606 | 0.581 | 0.512 | 0.502 | 1.17 | 0.873 | 0.94 | 1.11 | 0.368 | 0.495 | 0.312 | 0.41 |
| NCI-H2405 | 0.47 | 0.303 | 0.391 | 0.402 | 0.659 | 0.65 | 0.5 | 0.409 | 0.785 | 0.688 | 0.552 | 0.573 | 0.351 | 0.273 | 0.226 | 0.276 |
| NCI-H3122 | 0.158 | 0.183 | 0.171 | 0.185 | 0.373 | 0.541 | 0.219 | 0.306 | 0.637 | 0.514 | 0.631 | 0.564 | 0.411 | 0.373 | 0.387 | 0.575 |
| PC-3 [JPC-3] | 0.557 | 0.467 | 0.516 | 0.549 | 0.915 | 0.882 | 0.843 | 0.887 | 1.06 | 0.945 | 0.893 | 0.974 | 0.504 | 0.467 | 0.456 | 0.476 |
| PC-14 | 0.552 | 0.469 | 0.49 | 0.491 | 0.572 | 0.587 | 0.515 | 0.464 | 0.89 | 0.828 | 0.833 | 0.941 | 0.708 | – | 0.517 | 0.523 |
| RERF-LC-KJ | 1.03 | 0.946 | 0.943 | 0.845 | 0.544 | 0.506 | 0.33 | 0.236 | 0.708 | 0.866 | 0.515 | 0.787 | 0.315 | 0.348 | 0.322 | 0.273 |
| SK-LU-1 | 0.391 | 0.358 | 0.341 | 0.37 | 0.282 | 0.318 | 0.233 | 0.259 | 1.18 | 0.965 | 0.825 | 0.708 | 0.476 | 0.396 | 0.361 | 0.409 |
| SK-MES-1 | 0.34 | 0.355 | 0.293 | 0.282 | 0.979 | 0.968 | 0.8 | 0.207 | 0.962 | 0.676 | – | 0.843 | 0.699 | 0.632 | 0.559 | 0.635 |
| SW 1573 | 0.342 | 0.262 | 0.294 | 0.304 | 0.15 | 0.16 | 0.172 | 0.182 | 0.802 | 0.518 | 0.523 | 0.715 | 0.232 | 0.218 | 0.228 | 0.214 |
| UMC-11 | 0.31 | 0.312 | 0.32 | 0.273 | 0.2 | 0.203 | 0.204 | 0.184 | 0.955 | 1.1 | 1.01 | 1.1 | 0.341 | 0.339 | 0.347 | 0.277 |
